Results taken from PMC3311054 (2012).

What was measured:
[1] = target: bovine milk xanthine oxidoreductase (bXOR) (Bos taurus, UniProt P80457); test: steady-state kinetics, xanthine-NAD+ activity, uric acid absorbance at […] nm; type: biochemical
[2] = target: T1, Rhodobacter capsulatus xanthine oxidoreductase (RcXOR) (Rhodobacter capsulatus, UniProt O54051); test: steady-state kinetics, Lineweaver-Burk plots of xanthine-NAD+ activity; type: biochemical
T1 sequence (O54051 1-777): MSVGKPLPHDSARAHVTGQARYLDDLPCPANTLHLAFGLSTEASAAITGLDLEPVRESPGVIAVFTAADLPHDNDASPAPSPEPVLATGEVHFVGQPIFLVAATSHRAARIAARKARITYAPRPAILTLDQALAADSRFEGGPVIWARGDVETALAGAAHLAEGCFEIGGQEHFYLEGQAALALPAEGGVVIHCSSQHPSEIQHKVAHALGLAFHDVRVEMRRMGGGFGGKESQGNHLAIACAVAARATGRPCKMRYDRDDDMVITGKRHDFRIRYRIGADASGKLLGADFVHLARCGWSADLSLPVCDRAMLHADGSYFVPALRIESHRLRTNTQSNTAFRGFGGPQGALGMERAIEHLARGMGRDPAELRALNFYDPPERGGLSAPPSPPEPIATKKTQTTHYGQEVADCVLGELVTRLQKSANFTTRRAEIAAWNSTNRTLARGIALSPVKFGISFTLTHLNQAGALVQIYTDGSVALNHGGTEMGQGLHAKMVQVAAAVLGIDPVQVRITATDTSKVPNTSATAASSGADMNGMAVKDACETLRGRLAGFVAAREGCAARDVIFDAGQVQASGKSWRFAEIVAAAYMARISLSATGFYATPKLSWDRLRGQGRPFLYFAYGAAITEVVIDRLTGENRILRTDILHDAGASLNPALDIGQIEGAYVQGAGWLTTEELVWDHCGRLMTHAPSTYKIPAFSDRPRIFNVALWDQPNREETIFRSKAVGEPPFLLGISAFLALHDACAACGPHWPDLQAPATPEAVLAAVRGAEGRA
T1 sequence (O54050 1-462 partner): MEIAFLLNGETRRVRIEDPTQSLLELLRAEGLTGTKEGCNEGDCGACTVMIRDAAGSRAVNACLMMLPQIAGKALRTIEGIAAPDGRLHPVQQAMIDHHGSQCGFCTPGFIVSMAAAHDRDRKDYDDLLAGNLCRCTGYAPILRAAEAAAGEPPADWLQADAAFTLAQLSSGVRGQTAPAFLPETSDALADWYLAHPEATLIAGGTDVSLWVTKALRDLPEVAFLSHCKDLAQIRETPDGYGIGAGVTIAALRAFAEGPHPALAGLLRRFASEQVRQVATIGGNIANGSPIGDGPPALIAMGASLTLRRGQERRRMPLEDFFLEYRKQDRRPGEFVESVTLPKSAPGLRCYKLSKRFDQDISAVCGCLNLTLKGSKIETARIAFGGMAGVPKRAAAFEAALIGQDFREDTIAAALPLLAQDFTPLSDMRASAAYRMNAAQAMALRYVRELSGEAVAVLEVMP

Sequence of bovine milk xanthine oxidoreductase (bXOR) (P80457 2-1332): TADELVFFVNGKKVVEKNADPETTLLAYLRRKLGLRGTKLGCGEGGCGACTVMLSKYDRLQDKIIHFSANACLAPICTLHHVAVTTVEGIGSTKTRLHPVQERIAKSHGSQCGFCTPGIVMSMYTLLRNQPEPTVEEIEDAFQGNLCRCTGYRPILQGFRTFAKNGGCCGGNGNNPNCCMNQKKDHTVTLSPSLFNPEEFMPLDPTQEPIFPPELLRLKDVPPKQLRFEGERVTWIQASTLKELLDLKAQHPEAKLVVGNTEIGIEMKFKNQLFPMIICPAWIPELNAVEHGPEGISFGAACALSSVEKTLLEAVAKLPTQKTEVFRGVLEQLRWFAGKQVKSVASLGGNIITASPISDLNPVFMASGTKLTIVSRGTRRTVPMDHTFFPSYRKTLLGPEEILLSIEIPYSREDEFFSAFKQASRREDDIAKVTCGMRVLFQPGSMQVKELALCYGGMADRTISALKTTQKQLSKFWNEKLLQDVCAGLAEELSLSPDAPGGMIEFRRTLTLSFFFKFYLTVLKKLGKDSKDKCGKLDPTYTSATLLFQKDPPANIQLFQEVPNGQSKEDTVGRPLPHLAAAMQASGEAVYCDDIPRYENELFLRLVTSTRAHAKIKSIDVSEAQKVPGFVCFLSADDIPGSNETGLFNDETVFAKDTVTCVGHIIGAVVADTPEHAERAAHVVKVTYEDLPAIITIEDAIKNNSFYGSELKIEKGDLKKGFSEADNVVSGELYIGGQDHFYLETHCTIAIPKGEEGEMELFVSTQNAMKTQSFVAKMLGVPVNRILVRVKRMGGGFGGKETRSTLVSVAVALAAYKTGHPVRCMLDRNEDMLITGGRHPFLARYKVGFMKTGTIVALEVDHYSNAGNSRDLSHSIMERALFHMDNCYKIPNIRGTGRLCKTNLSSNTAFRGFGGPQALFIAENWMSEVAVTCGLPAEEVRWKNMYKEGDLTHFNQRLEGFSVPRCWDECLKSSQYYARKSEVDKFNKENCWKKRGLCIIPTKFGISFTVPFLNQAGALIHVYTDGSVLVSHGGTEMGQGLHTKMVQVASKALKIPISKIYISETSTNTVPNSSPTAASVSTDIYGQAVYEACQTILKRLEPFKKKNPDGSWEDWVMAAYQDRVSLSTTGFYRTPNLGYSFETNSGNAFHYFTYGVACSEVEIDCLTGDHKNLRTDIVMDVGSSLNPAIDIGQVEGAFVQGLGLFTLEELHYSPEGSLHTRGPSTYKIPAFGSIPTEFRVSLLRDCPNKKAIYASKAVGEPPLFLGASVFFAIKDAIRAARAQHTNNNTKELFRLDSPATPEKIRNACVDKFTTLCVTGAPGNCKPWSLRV

- steady-state kinetics, xanthine-NAD+ activity, uric acid absorbance at 295 nm [1]: < 100 nM
- Ki [2]: 17.5 µM
SMILES: Cc1nc(-c2ccc(OCC(C)C)c(C#N)c2)sc1C(=O)O [febuxostat]
